Columns and labels:
3T3-L1 adipocytes = assay: Maximal respiration in 3T3-L1 adipocytes (positive control); type: cell-based; conditions: 3 μM etomoxir
Experimental: All respirometry studies were conducted in either a Seahorse XF96 or XFe96 Analyzer. All experiments were conducted at 37° C., and at pH 7.4 (intact cells) or 7.2 (permeabilized cells and isolated mitochondria). Calculation of respiratory parameters was made according to standard protocols (Divakaruni, A. S., Paradyse, A., Ferrick, D. A., Murphy, A. N., and Jastroch, M. (2014a) Analysis and interpretation of microplate-based oxygen consumption and pH data. Meth. Enzym 547, 509-54), and all rates were corrected for non-mitochondrial respiration/background signal by subtracting the oxygen consumption rate insensitive to rotenone plus antimycin A.
Detailed description of FIG. 5. (FIG. 5A) Maximal FCCP-stimulated respiration in response to 3 μM etomoxir in six cell types (experimental conditions in Materials and Methods). […] (n≥3 independent biological replicates). (FIG. 5B) (Left) Maximal respiration in HepG2 cells offered 8 mM glucose, 2 mM glutamine, and 2 mM pyruvate in the experimental medium with BPTES and UK5099 (both at 3 μM)±3 μM etomoxir. (n=4 independent biological replicates). (Right) Maximal respiration in 3T3-L1 adipocytes offered 1 mM glucose and 0.5 mM carnitine in the experimental medium with increasing concentrations of etomoxir. (n=3 independent biological replicates). […]

BMDMs [1] = assay: ADP- or FCCP-stimulated respiration in permeabilized WT, Cpt1a-/- and Cpt2-/- BMDMs; type: cell-based, mouse; conditions: 200 μM etomoxir; independent of CPT-1 activity; also stated for Treg cells
BMDMs [2] = assay: Mass spectrometry-based metabolomics of BMDMs; type: cell-based, mouse; conditions: IL-4
Experimental: Cell. 173, 470-484. Briefly, cells were seeded in 6-well dishes at 1×10^6 cells/well. Cells were treated with IL-4 with and without etomoxir co-treatments (3 μM or 200 μM) similarly to other experiments. To extract intracellular metabolites, cells were briefly rinsed with cold 150 mM ammonium acetate (pH 7.3), followed by addition of 1 ml cold 80% MeOH on dry ice. Cells were detached with cell scrapers and suspensions transferred into centrifuge tubes. After rigorous mixing, the suspension was pelleted by centrifugation (1.3×104 rpm, 4° C.). The supernatant was transferred into a glass vial, metabolites were dried down under vacuum, and resuspended in 50% (v/v) acetonitrile including heavy isotope-labeled amino acids as internal standards (Chen, W. W., Freinkman, E. and Sabatini, D. M. (2017) Rapid immunopurification of mitochondria for metabolite profiling and absolute quantification of matrix metabolites. Nat. Protoc. 12, 2215-2231).
For the mass spectrometry-based analysis of the sample, 5 μL were injected onto a Luna NH2 (150 mm×2 mm, Phenomenex) column. The samples were analyzed with an UltiMate 3000RSLC (Thermo Scientific) coupled to a Q Exactive mass spectrometer (Thermo Scientific). The Q Exactive was run with polarity switching (+3.50 kV/−3.50 kV) in full scan mode with an m/z range of 65-975. Separation was achieved using A) 5 mM NH4AcO (pH 9.9) and B) ACN. The gradient started with 15% A) going to 90% A) over 18 min, followed by an isocratic step for 9 min and reversal to the initial 15% A) for 7 min. Metabolites were quantified with El Maven (v0.2.4) using accurate mass measurements (≤3 ppm) and retention times of pure standards. Data analysis was performed using the statistical language R. For the PCA and clustering analyses, only metabolites with an ANOVA p-value≤0.05 were incorporated. For visualization using heatmaps, metabolites were scaled across samples but not across metabolites. To assess what metabolites contributed the most to a given metabolic phenotype, we calculated the correlation between the loading vector for a given metabolite and the score vector of a given sample for PCs 1 and 2.

BMDMs [3] = assay: Intracellular free coenzyme A levels in BMDMs; type: cell-based, mouse; conditions: 200 μM etomoxir, IL-4, 20 hr
Experimental: On Day 6 of differentiation, BMDMs were seeded at 1.2×10^6 cells/well in 6-well plates. 24 hr later, BMDMs were mock-treated or co-treated with 20 ng/mL IL-4±200 μM etomoxir±500 μM CoA in DMEM supplemented with 5% FBS, 2 mM L-glutamine, 100 units/mL, […] penicillin/streptomycin, 500 μM of sodium pyruvate and 5% v/v conditioned media containing macrophage colony stimulating factor (M-CSF) for 20 hr. Prior to sample collections, cells were washed with 600 μL of 0.9% (w/v) NaCl twice. Three wells per replicate per treatment were combined in 2 mL centrifuge tubes and centrifuged at 500 g for 5 mins at 4° C. The supernatant was removed, and the cell pellet was re-suspended in 75 μL of ice-cold 0.7% (v/v) perchloric acid for 5 min. Samples were then centrifuged at 10,000 g for 7 mins at 4° C. and the resulting supernatant was adjusted to pH 7 with 2M NaOH and 500 mM K2HPO4. The coenzyme A concentration was determined with Coenzyme A Assay Kit following manufacturer's instructions (Sigma MAK034) using 40 μL of sample supernatant. Coenzyme A levels were normalized to total cellular protein (BCA method).

What does the source list for CCOC(=O)[C@@]1(CCCCCCOc2ccc(Cl)cc2)CO1 [etomoxir]?
respiration (3T3-L1 adipocytes): sufficient to inhibit respiration; phosphorylating and uncoupled respiration (BMDMs [1]): pronounced off-target effect on phosphorylating respiration with a secondary effect at uncoupled respiration; intracellular pantothenate levels (BMDMs [2]; 3 μM etomoxir): no change; metabolite profile (PCA) (BMDMs [2]; 3 μM etomoxir): no appreciable change; intracellular pantothenate levels, increase (BMDMs [2]; 200 μM etomoxir): three-fold; metabolite composition (PCA) (BMDMs [2]; 200 μM etomoxir): profound change; intracellular free CoA levels (BMDMs [3]): significantly dropped

— patent US11813277B2, “Methods and agents for modulating inflammation” (The Regents of the University of California, priority 2018, dated 2023)
